Results from paper PMC9021956, “Screening and Identification of HBV Epitopes Restricted by Multiple Prevalent HLA-A Allotypes” (Frontiers in Immunology, 2022).
Read-outs that look alike come from different tables or passages of the source. Residues, ends and D or L forms follow the SMILES beside them.

Experiments:
HLA-A0301 = biological target: T1, HLA-A0301 (Homo sapiens, UniProt P04439); assay: Peptide competitive binding assay, transfected HMy2.CIR cells, reference ATFQFK(FITC)VER; conditions: HLA-A0301 HMy2.CIR cells, 24 hours, flow cytometry
T1 construct: expressed in transfected cells; host or cells: HMy2.CIR
Outline: (§1)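 Unlabeled peptide IC50 reflects competition against an allele-specific FITC-labeled reference peptide on HLA-A-transfected HMy2.CIR cells. Cells were stripped at pH3.3 and given β2-m (1 μg/mL); flow cytometry measured FITC+ fraction, scaled between cells-alone and reference-peptide controls.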

HLA-A1102 = biological target: T2, HLA-A1102 (Homo sapiens, UniProt P04439, A114D/D185E/E176A/E43K/F33Y/L180Q/S129P/T187R); assay: as above; conditions: HLA-A1102 HMy2.CIR cells, 24 hours, flow cytometry
T2 construct: expressed in transfected cells; host or cells: HMy2.CIR
Outline: as §1

HLA-A0206 = biological target: T3, HLA-A0206 (Homo sapiens, UniProt P04439, D140Y/D185E/D98H/E176V/E277Q/F33Y/G131W/G231S/I119V/I121R/I166T/I218V/L300P/L318F/N151K/N90K/P208A/P217A/Q86G/Q94H/R138H/R169H/T345S); assay: cell-based; type: binding; conditions: HLA-A0206 HMy2.CIR cells, 24 hours, flow cytometry
T3 construct: expressed in transfected cells; host or cells: HMy2.CIR
Outline: as §1

HLA-A1101 = biological target: T4, HLA-A1101 (Homo sapiens, UniProt P04439, A114D/D185E/E176A/F33Y/L180Q/S129P/T187R); assay: cell-based; type: binding; conditions: for inhibition at 5 µM: read-out: 5μM Inhibition (%); for inhibition at 15 µM: read-out: 15μM Inhibition (%)
T4 construct: expressed in transfected cells; host or cells: HMy2.CIR
Outline: as §1

[1] = tested on: twelve prevalent HLA-A allotypes; assay: Peptide competitive binding assay, whole panel; design: species or system human; conditions: high = IC50<5μM
Procedure: A set of fluoresce-labeled reference peptides (positive-control peptide) were synthesized with a purity of >99% by Sangon Biotech and stored at 4°C, such as FLPSDK(FITC)FPSV for A0201, A0203 and A0206 ([30]), YVNVNK(FITC)GLK for A1101 and A3303 ([31]), EYLVSK(FITC)GVW for A2402 ([32]), ATFQFK(FITC)VER for A3101, A1102 and A0301 ([33]), KLPDDFK(FITC)GCV for A0207 ([34]), YLEPAK(FITC)AKY for A0101 ([30]), and ASRELK(FITC)VSY for A3001 (identified in house). Then the competitive peptide binding assay was performed as described with minor modifications ([30], [35]). Briefly, the HMy2.CIR cell lines expressing the indicated HLA-A molecule were washed with acid buffer (0.131M citric acid and 0.061M sodium phosphate Na2HPO4, PH3.3, 0.22 μm filtered) for 1 min, and immediately neutralized by IMDM medium containing 0.5% BSA. After washing, the cells were seeded into 96-well U culture plate (1×10^5 cells/100 μL/well) with β2-m (1 μg/mL). […] In parallel, no peptide control well (cells alone) and positive control well (cells with FITC-labeled reference peptide) were also performed.
The plate was centrifuged at 600 rpm for 5 min at room temperature (RT). Cells were washed twice with 100 μL cold 0.5% BSA-PBS. Finally, cells were resuspended with 150 μL PBS and analyzed with flow cytometry. Sample % is the percentage of FITC^+ cells in the experiment well, while the background % is the percentage of FITC^+ cells in the no peptide control well, and the max % is the percentage of FITC^+ cells in the positive control well. Competitive binding (%) = [1-(sample % - background %)/(max % – background %)] × 100%. […] Binding affinity of unlabeled peptide with the indicated HLA-A molecule is assessed by IC50.
Subsequently, the unlabeled epitope peptides of HBV competed with fluorescently labeled reference peptides in the binding with HLA-A molecules onto transfected cell lines for 24 hours. Here, twelve prevalent HLA-A allotypes were tested with totally 62 HBV epitope peptides validated in house.

HLA-A3101 = HLA-A3101 (Homo sapiens, UniProt P04439, A270S/D185E/E176V/E277Q/F33T/G231S/G80R/H175R/I121M/I218V/I322F/K168Q/L300P/L318F/M331R/P217A/Q94H/R138Q/T323A/T345S/T97I/V358M); assay: Peptide competitive binding assay, transfected HMy2.CIR cells, reference ATFQFK(FITC)VER; conditions: for inhibition at 5 µM / inhibition at 15 µM: HLA-A3101 HMy2.CIR cells, 24 hours, flow cytometry; for inhibition at 5 µM: competitor peptide 5μM; for inhibition at 15 µM: competitor peptide 15μM
Outline: as §1

HLA-A0201 = biological target: T5, HLA-A0201 (Homo sapiens, UniProt P04439, D140Y/D185E/D98H/E176V/E277Q/G131W/G231S/I119V/I121R/I166T/I218V/L300P/L318F/N151K/N90K/P208A/P217A/Q86G/Q94H/R138H/R169H/T345S); assay: cell-based; type: binding; conditions: for inhibition at 5 µM: read-out: 5μM Inhibition (%); for inhibition at 15 µM: read-out: 15μM Inhibition (%)
T5 construct: expressed in transfected cells; host or cells: HMy2.CIR
Outline: as §1

[2] = competitor peptide 5μM, read-out: 5μM Inhibition (%)
[3] = competitor peptide 15μM, read-out: 15μM Inhibition (%)
[4] = HLA-A1101 HMy2.CIR cells, competitor peptide 5μM, 24 hours, flow cytometry
[5] = HLA-A1101 HMy2.CIR cells, competitor peptide 15μM, 24 hours, flow cytometry

With `CSCC[C@H](NC(=O)[C@@H](N)CO)C(=O)N[C@@H](Cc1ccc(O)cc1)C(=O)N1CCC[C@H]1C(=O)N[C@@H](CO)C(=O)N[C@@H](CS)C(=O)N[C@@H](CS)C(=O)N[C@@H](CS)C(=O)N[C@H](C(=O)N[C@@H](CCCCN)C(=O)O)[C@@H](C)O` [Epitope P13] (H-SMYPSCCCTK-OH; N-terminus and C-terminus assumed) as the compound, how does the inhibition at 5 µM (HLA-A0301; [2]) read?
Its inhibition at 5 µM is 79.8%.

What about the inhibition at 15 µM (HLA-A0301; [3]) of the same compound?
Its inhibition at 15 µM is 80.7%.

And the inhibition at 5 µM (HLA-A1102; [2])?
The inhibition at 5 µM was 54.7%.

What about the inhibition at 15 µM (HLA-A1102; [3]) of the same compound?
The inhibition at 15 µM was 73.1%.

What about the inhibition at 5 µM (HLA-A0206; [2]) of the same compound?
Its inhibition at 5 µM is 12.1%.

What about the inhibition at 15 µM (HLA-A0206; [3]) of the same compound?
Its inhibition at 15 µM is 10.2%.

And the inhibition at 5 µM (HLA-A1101; [4])?
The inhibition at 5 µM was 79.5%.

What about the inhibition at 15 µM (HLA-A1101; [5]) of the same compound?
Its inhibition at 15 µM is 83.9%.

What about the “number of HLA-A allotypes bound with high affinity” value [1] of the same compound?
Its value is “three”.

Which inhibition at 5 µM (HLA-A3101) does the source give for `CC(C)C[C@H](NC(=O)[C@H](CCCCN)NC(=O)[C@H](Cc1c[nH]cn1)NC(=O)[C@H](CCCNC(=N)N)NC(=O)[C@H](CS)NC(=O)CNC(=O)CNC(=O)[C@H](CC(C)C)NC(=O)[C@@H](N)C(C)C)C(=O)O` [Epitope P36] (H-VLGGCRHKL-OH; N-terminus and C-terminus assumed) here?
The inhibition at 5 µM was 4.82%.

And the inhibition at 15 µM (HLA-A3101)?
Its inhibition at 15 µM is 5.7%.

And the IC50 (HLA-A3101; read-out: Affinity)?
The IC50 was greater than 15 µM.

And the IC50 (HLA-A1101)?
The IC50 was greater than 15 µM.

What about the inhibition at 5 µM (HLA-A1101; [4]) of the same compound?
The inhibition at 5 µM was 14%.

What about the inhibition at 15 µM (HLA-A1101; [5]) of the same compound?
The inhibition at 15 µM was 20.6%.

What about the IC50 (HLA-A0201) of the same compound?
The IC50 was greater than 15 µM.

What about the inhibition at 5 µM (HLA-A0201; HLA-A0201 HMy2.CIR cells, competitor peptide 5μM, 24 hours, flow cytometry) of the same compound?
Its inhibition at 5 µM is 22.3%.

What about the inhibition at 15 µM (HLA-A0201; HLA-A0201 HMy2.CIR cells, competitor peptide 15μM, 24 hours, flow cytometry) of the same compound?
Its inhibition at 15 µM is 37.3%.

`CC[C@H](C)[C@H](NC(=O)[C@H](CO)NC(=O)[C@H](CO)NC(=O)[C@@H](NC(=O)[C@@H]1CCCN1C(=O)[C@@H](N)CO)[C@@H](C)CC)C(=O)N[C@@H](Cc1ccccc1)C(=O)N[C@@H](CO)C(=O)N[C@@H](CCCNC(=N)N)C(=O)O` [Epitope P38] (H-SPISSIFSR-OH; N-terminus and C-terminus assumed) was tested. Which inhibition at 5 µM (HLA-A3101) did it give?
Its inhibition at 5 µM is 4.04%.

What about the inhibition at 15 µM (HLA-A3101) of the same compound?
Its inhibition at 15 µM is 4.49%.

What about the inhibition at 5 µM (HLA-A1101; 24 h) of the same compound?
Its inhibition at 5 µM is 13.2%.

What about the inhibition at 15 µM (HLA-A1101; 24 h) of the same compound?
Its inhibition at 15 µM is 14.6%.

And the inhibition at 5 µM (HLA-A0201; 24 h)?
The inhibition at 5 µM was 0%.

And the inhibition at 15 µM (HLA-A0201; 24 h)?
Its inhibition at 15 µM is 0%.
